Data: ChEMBL document CHEMBL1147864, “Synthesis of new sugar derivatives from Stachys sieboldi Miq and antibacterial evaluation against Mycobacterium tuberculosis, Mycobacterium avium, and Staphylococcus aureus” (2007)
In brackets after ≈: the same amount, converted by molar mass.

Assays:
Type in all cases: functional
Details in all cases: 336 h
[1] = system: Mycobacterium tuberculosis; experiment: Antimycobacterial activity against isoniazide resistant Mycobacterium tuberculosis A-2-1 after 2 weeks by broth dilution method
[2] = system: Mycobacterium tuberculosis; experiment: Antimycobacterial activity against isoniazide-rifampicin resistant Mycobacterium tuberculosis A-2-3 after 2 weeks by broth dilution method
[3] = system: Mycobacterium tuberculosis; experiment: Antimycobacterial activity against rifampicin resistant Mycobacterium tuberculosis A-2-4 after 2 weeks by broth dilution method
[4] = system: Mycobacterium tuberculosis; experiment: Antimycobacterial activity against isoniazide-rifampicin-streptomycin-ethambutol-resistant Mycobacterium tuberculosis A-2-6 after 2 weeks by broth dilution method
[5] = system: Mycobacterium tuberculosis; experiment: Antimycobacterial activity against streptomycin resistant Mycobacterium tuberculosis A-3-47 after 2 weeks by broth dilution method
[6] = system: Mycobacterium tuberculosis; experiment: Antimycobacterial activity against streptomycin resistant Mycobacterium tuberculosis A-4-8 after 2 weeks by broth dilution method
[7] = system: Mycobacterium tuberculosis; experiment: Antimycobacterial activity against isoniazide-streptomycin resistant Mycobacterium tuberculosis A-4-25 after 2 weeks by broth dilution method
[8] = system: Mycobacterium tuberculosis; experiment: Antimycobacterial activity against isoniazide-rifampicin-ethambutol-resistant Mycobacterium tuberculosis A-4-30 after 2 weeks by broth dilution method
[9] = system: Mycobacterium tuberculosis; experiment: Antimycobacterial activity against isoniazide-rifampicin-streptomycin-ethambutol-resistant Mycobacterium tuberculosis C-1-29 after 2 weeks by broth dilution method
[10] = system: Mycobacterium tuberculosis; experiment: Antimycobacterial activity against isoniazide-rifampicin-streptomycin-ethambutol-resistant Mycobacterium tuberculosis E-1-40 after 2 weeks by broth dilution method
[11] = system: Mycobacterium tuberculosis; experiment: Antimycobacterial activity against isoniazide-rifampicin-ethambutol-resistant Mycobacterium tuberculosis J-1-19 after 2 weeks by broth dilution method
[12] = system: Mycobacterium tuberculosis; experiment: Antimycobacterial activity against isoniazide resistant Mycobacterium tuberculosis K-3-6 after 2 weeks by broth dilution method
[13] = system: Mycobacterium tuberculosis; experiment: Antimycobacterial activity against isoniazide-rifampicin-streptomycin-ethambutol-resistant Mycobacterium tuberculosis M-1-32 after 2 weeks by broth dilution method
[14] = system: Mycobacterium tuberculosis; experiment: Antimycobacterial activity against isoniazide-rifampicin-ethambutol-resistant Mycobacterium tuberculosis N-4-11 after 2 weeks by broth dilution method
[15] = system: Mycobacterium tuberculosis; experiment: Antimycobacterial activity against isoniazide-rifampicin-streptomycin-ethambutol-resistant Mycobacterium tuberculosis N-5-2 after 2 weeks by broth dilution method
[16] = system: Mycobacterium tuberculosis; experiment: Antimycobacterial activity against isoniazide-rifampicin-streptomycin-ethambutol-resistant Mycobacterium tuberculosis P-1-50 after 2 weeks by broth dilution method
[17] = system: Mycobacterium tuberculosis; experiment: Antimycobacterial activity against isoniazide-rifampicin-streptomycin-ethambutol-resistant Mycobacterium tuberculosis P-4-11after 2 weeks by broth dilution method
[18] = system: Mycobacterium tuberculosis; experiment: Antimycobacterial activity against isoniazide-rifampicin-streptomycin-ethambutol-resistant Mycobacterium tuberculosis Q-4-1 after 2 weeks by broth dilution method
[19] = system: Mycobacterium tuberculosis; experiment: Antimycobacterial activity against isoniazide-rifampicin-streptomycin-ethambutol-resistant Mycobacterium tuberculosis R-1-38 after 2 weeks by broth dilution method
[20] = system: Mycobacterium tuberculosis; experiment: Antimycobacterial activity against isoniazide-rifampicin-streptomycin-ethambutol-resistant Mycobacterium tuberculosis S-1-14 after 2 weeks by broth dilution method
[21] = system: Mycobacterium tuberculosis; experiment: Antimycobacterial activity against isoniazide-rifampicin-streptomycin-ethambutol-resistant Mycobacterium tuberculosis U-2-15 after 2 weeks by broth dilution method
[22] = system: Mycobacterium tuberculosis; experiment: Antimycobacterial activity against isoniazide-rifampicin-streptomycin-ethambutol-resistant Mycobacterium tuberculosis U-4-6 after 2 weeks by broth dilution method
[23] = system: Mycobacterium tuberculosis; experiment: Antimycobacterial activity against isoniazide-rifampicin-streptomycin-ethambutol-resistant Mycobacterium tuberculosis V-1-16 after 2 weeks by broth dilution method
[24] = system: Mycobacterium tuberculosis; experiment: Antimycobacterial activity against isoniazide-rifampicin-streptomycin-ethambutol-resistant Mycobacterium tuberculosis Z-1-2 after 2 weeks by broth dilution method
[25] = system: Mycobacterium tuberculosis; experiment: Antimycobacterial activity against isoniazide-rifampicin-streptomycin-ethambutol-resistant Mycobacterium tuberculosis Z-1-4 after 2 weeks by broth dilution method

**Q.** With `C=CCO[C@@H]1O[C@H](CO[C@H]2O[C@H](CO[C@H]3O[C@H](COC(C)=O)[C@H](OC(C)=O)[C@H](OC(C)=O)[C@H]3OC(C)=O)[C@H](OC(C)=O)[C@H](OC(C)=O)[C@H]2OC(C)=O)[C@@H](OC(C)=O)[C@H](OC(C)=O)[C@H]1OC(C)=O` as the compound, how does the MIC [1] read?
**A.** Its MIC is 3.13 µg/mL (≈ 3.24 µM).

**Q.** And the MIC [2]?
**A.** The MIC was 3.13 µg/mL (≈ 3.24 µM).

**Q.** And the MIC [3]?
**A.** The MIC was 12.5 µg/mL (≈ 13 µM).

**Q.** What about the MIC [4] of the same compound?
**A.** Its MIC is 6.25 µg/mL (≈ 6.48 µM).

**Q.** What about the MIC [5] of the same compound?
**A.** The MIC was 3.13 µg/mL (≈ 3.24 µM).

**Q.** What about the MIC [6] of the same compound?
**A.** Its MIC is 6.25 µg/mL (≈ 6.48 µM).

**Q.** And the MIC [7]?
**A.** Its MIC is 12.5 µg/mL (≈ 13 µM).

**Q.** And the MIC [8]?
**A.** The MIC was 6.25 µg/mL (≈ 6.48 µM).

**Q.** And the MIC [9]?
**A.** Its MIC is 12.5 µg/mL (≈ 13 µM).

**Q.** And the MIC [10]?
**A.** Its MIC is 6.25 µg/mL (≈ 6.48 µM).

**Q.** What about the MIC [11] of the same compound?
**A.** Its MIC is 3.13 µg/mL (≈ 3.24 µM).

**Q.** What about the MIC [12] of the same compound?
**A.** Its MIC is 3.13 µg/mL (≈ 3.24 µM).

**Q.** What about the MIC [13] of the same compound?
**A.** The MIC was 3.13 µg/mL (≈ 3.24 µM).

**Q.** What about the MIC [14] of the same compound?
**A.** Its MIC is 3.13 µg/mL (≈ 3.24 µM).

**Q.** And the MIC [15]?
**A.** Its MIC is 3.13 µg/mL (≈ 3.24 µM).

**Q.** What about the MIC [16] of the same compound?
**A.** Its MIC is 3.13 µg/mL (≈ 3.24 µM).

**Q.** What about the MIC [17] of the same compound?
**A.** The MIC was 3.13 µg/mL (≈ 3.24 µM).

**Q.** What about the MIC [18] of the same compound?
**A.** The MIC was 6.25 µg/mL (≈ 6.48 µM).

**Q.** What about the MIC [19] of the same compound?
**A.** The MIC was 6.25 µg/mL (≈ 6.48 µM).

**Q.** And the MIC [20]?
**A.** Its MIC is 6.25 µg/mL (≈ 6.48 µM).

**Q.** What about the MIC [21] of the same compound?
**A.** Its MIC is 6.25 µg/mL (≈ 6.48 µM).

**Q.** What about the MIC [22] of the same compound?
**A.** Its MIC is 1.56 µg/mL (≈ 1.62 µM).

**Q.** What about the MIC [23] of the same compound?
**A.** The MIC was 6.25 µg/mL (≈ 6.48 µM).

**Q.** What about the MIC [24] of the same compound?
**A.** The MIC was 3.13 µg/mL (≈ 3.24 µM).

**Q.** And the MIC [25]?
**A.** Its MIC is 6.25 µg/mL (≈ 6.48 µM).
